# Assay results published in PMC10200060, “Inhibition of DAMP actions in the tumoral microenvironment using lactoferrin-glycyrrhizin conjugate for glioblastoma therapy” (Biomaterials Research, 2023).
# Key:
# [1] = test system: HUVEC; assay: HUVEC co-cultured with U87MG: CCK-8 at basal chamber; format: cell-based, human; settings: HUVEC/U87MG Transwell co-culture, 100 μM GL equivalent, 24 h
# Protocol: To evaluate the inhibitory effect of Lf-GL on neovascularization in the tumor microenvironment in vitro, U87MG cells were seeded in the Transwell® insert chambers that were 6.5 mm in diameter and had 0.4 μm pore sizes (seeding density: 2.5 × 10^4 cells per well, Corning). HUVECs were seeded in the Transwell basal chamber (seeding density: 5.0 × 10^4 cells per well). GL, Lf, or Lf-GL (100 × 10^–6 M of GL equivalent concentration) were added to the insert chamber, and cells were incubated for 24 h. CCK-8 assay and HMGB1 ELISA were conducted at the basal chamber.
# [2] = In vivo fluorescence tracer image (brain); parameters: species or system Balb/c mice; settings: FITC-tagged
# Protocol: For the fluorescence tracer images, Balb/c mice were administered either FITC-tagged GL or FITC-tagged Lf-GL at a GL equivalent concentration of 50 mg kg^−1 body weight via tail vein injection. After 1, 10, 30, and 60 min, the experimental mice were sacrificed, and the organs were extracted. The fluorescence signals of FITC-tagged GL or FITC-tagged Lf-GL in organs were imaged using an in vivo imaging system (FOBI, CELLGENTEK, South Korea). The exposure time was fixed to 200 s for analyzing fluorescent signals from tissues. The quantified fluorescence signal of the brain at each time point was measured in terms of intensity units (IU, Intensity Min^−1 Gain^−1).
# Fig. S15. Fluorescence tracer images of intravenously injected GL and Lf-GL. Balb/c mice were administered either FITC-tagged GL or FITC-tagged Lf-GL at a GL equivalent concentration of 50 mg kg^-1 body weight via tail vein injection. The fluorescence signals of FITC-tagged GL or FITC-tagged Lf-GL in organs were imaged using an in vivo imaging system (FOBI, CELLGENTEK, South Korea). The exposure time was fixed to 200 sec for analyzing fluorescent signals from tissues. The quantified fluorescence signal of brain at each time point was measured with Intensity Unit (IU, Intensity Min^-1 Gain^-1).
# [3] = test system: orthotopic GBM (U87MG) mice model; assay: Survival in orthotopic GBM mouse model; format: in vivo, Balb/c nude mice; settings: i.v. GL equivalent 50 mg kg^−1 (Lf 5 mg kg^−1), 28 days
# Protocol: To establish the orthotopic GBM mice model, GBM cells (U87MG, inoculation density: 1.0 × 10^6 cells per 10 μL) were stereotactically injected into the right striatum of Balb/c nude mice. Then, mice were randomly divided into four groups (n = 5): control, GL, Lf, and Lf-GL treated group. […] After four weeks, mice were sacrificed, and organs were harvested and fixed with 4% paraformaldehyde for further analysis.
# [4] = target: T1, human recombinant HMGB1 protein (Homo sapiens, UniProt P09429); assay: SPR binding affinity against HMGB1; settings: SPR, HMGB1 immobilized
# T1 construct: purchased Abcam
# T1 sequence (P09429 1-215): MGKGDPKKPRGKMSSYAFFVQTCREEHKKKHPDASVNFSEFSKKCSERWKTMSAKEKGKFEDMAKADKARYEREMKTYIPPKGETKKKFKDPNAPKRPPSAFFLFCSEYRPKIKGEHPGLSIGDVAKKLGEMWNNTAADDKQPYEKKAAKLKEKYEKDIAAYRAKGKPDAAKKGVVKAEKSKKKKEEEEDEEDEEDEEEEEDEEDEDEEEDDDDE
# Protocol: To confirm the binding affinity of Lf-GL to HMGB1, Surface Plasmon Resonance (SPR) was conducted at WoojungBSC (Korea). The Reichert SR7500DC system (Reichert technologies, NA, USA) and Scrubber2 software (Biologic software, FRA) were used, and a CMDH chip (Cat #: 13,206,066, Reichert technologies) was used for immobilization of the human recombinant HMGB1 protein (Abcam). HMGB1 protein was used as a ligand, and the analytes were HMGB1 antibody (Abcam), GL, Lf and Lf-GL conjugate. The immobilization buffer was S.A. (10 × 10^–3 M, pH 4.5), and the running buffer was PBS (pH 7.4). The flow rate of the analyte was 30 μL min^−1. The association and dissociation time were 3 min each, and measurements were conducted at room temperature. Results are expressed in response units (RU) over time.
# Fig. S5. Binding affinity against HMGB1. Surface Plasmon Resonance (SPR) was conducted at WoojungBSC (Korea). The Reichert SR7500DC system (Reichert technologies, NA, USA) and Scrubber2 software(Biologic software, FRA) were used and the CMDH chip (Cat #: 13206066, Reichert technologies) was used for immobilization of the human recombinant HMGB1 protein (Abcam). HMGB1 protein was used as ligand and analytes were HMGB1 antibody (Abcam), GL, Lf and Lf-GL conjugate. Immobilization buffer was 10 mM S.A. (pH 4.5) and running buffer was 1× PBS. The flow rate of the analyte was 30 μL min^-1. The association and dissociation time were 3 min each and conducted at room temperature. Results are expressed in response units (RU) over time.
# [5] = test system: HMGB1; assay: HMGB1 ELISA of U87MG culture medium; format: cell-based, human; settings: 50 μM GL equivalent, 48 h (control 131.8 ± 11.4)
# Protocol: U87MG cells were seeded in 100 mm-cell culture dishes (2.2 × 10^6 cells per dish) and treated with GL, Lf, or Lf-GL (50 × 10^–6 M GL equivalent concentration) for 48 h. After incubating, cells were collected using a cell scrapper and were centrifuged for 3 min at 150 × g. Supernatant was collected as cell culture medium, and pellets were washed with cold PBS twice and transferred into a microcentrifuge tube. Tubes were centrifuged, and then pellets were resuspended in 500 μL 1X hypotonic buffer and incubated on ice. Then, 25 μL of NP40 was added and the mixture was agitated using a vortex mixer at the highest setting. Homogenates were centrifuged for 10 min at 842 × g at 4℃. Supernatant was collected as the cytoplasmic fraction, and pellets were resuspended in cell extraction buffer (50 μL) and were incubated for 30 min on ice with vortexing at 10 min intervals. Then, homogenates were centrifuged for 30 min at 14,000 × g at 4℃. Supernatant was collected as the nuclear fraction. The amount of HMGB1 in the samples was measured using a HMGB1 ELISA kit (Abbkine), and absorbance was measured at 450 nm in a micro-plate reader. A DNA assay (Quant-iT™ dsDNA Assay Kit, Invitrogen) was also conducted to express HMGB1 concentrations in equivalent amounts of DNA.
smiles,measurement,setting,value
"CC1(C)[C@@H](O[C@H]2O[C@H](C(=O)O)[C@@H](O)[C@H](O)[C@H]2O[C@@H]2O[C@H](C(=O)O)[C@@H](O)[C@H](O)[C@H]2O)CC[C@]2(C)[C@H]3C(=O)C=C4[C@@H]5C[C@@](C)(C(=O)O)CC[C@]5(C)CC[C@@]4(C)[C@]3(C)CC[C@@H]12 [GL, Glycyrrhizin]",Reduction of endothelial cell proliferation,[1],10.7 ± 2.9%
same,Time up to which fluorescence signal was detected in the brain,[2]; i.v. GL equivalent 50 mg kg^−1,≤ 10 min
same,Fluorescence intensity in the brain,"[2]; i.v. GL equivalent 50 mg kg^−1, 10 min after injection","7,914 I.U."
same,Additional days of survival versus PBS control,[3],4 days
same,"Kd, dissociation rate constant","[4]; PBS pH 7.4, room temperature",0.00283 ± 3e-05 s⁻¹
same,kon,"[4]; PBS pH 7.4, room temperature, read-out: Ka, association rate constant",5.3 ± 0.1 M⁻¹ s⁻¹
same,Kd,"[4]; read-out: KD, equilibrium dissociation constant (KD = Kd Ka^−1)",540 ± 20 µM
same,HMGB1 released into the medium of U87MG cells,[5],80.7 ± 4.5 ng/mL
